Experimental data from PubChem BioAssay (NCI).
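GI50 marks 50% less growth. TGI marks complete inhibition of growth.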

Columns and labels:
Assay in all cases: growth of human tumour cells (NCI), 384-well format
OVCAR-8 ovarian = tested on: OVCAR-8 ovarian
SF-268 CNS = tested on: SF-268 CNS
SNB-75 CNS = tested on: SNB-75 CNS
SR leukemia = tested on: SR leukemia
NCI-H460 NSCLC = tested on: NCI-H460 NSCLC
NCI-H226 lung = tested on: NCI-H226 lung
SF-295 CNS = tested on: SF-295 CNS
PC-3 prostate = tested on: PC-3 prostate
IGROV1 ovarian = tested on: IGROV1 ovarian
SF-539 CNS = tested on: SF-539 CNS
MDA-MB-231 breast = tested on: MDA-MB-231 breast
CAKI-1 renal = tested on: CAKI-1 renal
U251 glioblastoma = tested on: U251 glioblastoma
TK-10 renal = tested on: TK-10 renal
OVCAR-3 ovarian = tested on: OVCAR-3 ovarian
UACC-257 melanoma = tested on: UACC-257 melanoma
MCF7 breast = tested on: MCF7 breast
DU-145 prostate = tested on: DU-145 prostate
SN12C renal = tested on: SN12C renal
T-47D breast = tested on: T-47D breast
NCI-H23 lung = tested on: NCI-H23 lung
HOP-92 NSCLC = tested on: HOP-92 NSCLC
M14 melanoma = tested on: M14 melanoma
UACC-62 melanoma = tested on: UACC-62 melanoma
MALME-3M melanoma = tested on: MALME-3M melanoma
SNB-19 CNS = tested on: SNB-19 CNS
NCI/ADR-RES ovarian = tested on: NCI/ADR-RES ovarian
SK-OV-3 ovarian = tested on: SK-OV-3 ovarian
CCRF-CEM leukemia = tested on: CCRF-CEM leukemia
SW-620 colon = tested on: SW-620 colon
BT-549 breast = tested on: BT-549 breast
COLO 205 colon = tested on: COLO 205 colon
RPMI-8226 leukemia = tested on: RPMI-8226 leukemia
SK-MEL-2 melanoma = tested on: SK-MEL-2 melanoma
KM12 colon = tested on: KM12 colon
OVCAR-4 ovarian = tested on: OVCAR-4 ovarian
LOX IMVI melanoma = tested on: LOX IMVI melanoma
NCI-H322M lung = tested on: NCI-H322M lung
A549 NSCLC = tested on: A549 NSCLC
HS 578T breast = tested on: HS 578T breast
ACHN renal = tested on: ACHN renal
SK-MEL-28 melanoma = tested on: SK-MEL-28 melanoma
HT29 colon = tested on: HT29 colon
SK-MEL-5 melanoma = tested on: SK-MEL-5 melanoma
OVCAR-5 ovarian = tested on: OVCAR-5 ovarian
RXF 393 renal = tested on: RXF 393 renal
NCI-H522 lung = tested on: NCI-H522 lung

COCCOc1cnc2ccn([C@H](C)c3nnc4c(F)cc(-c5cnn(C)c5)cn34)c(=O)c2c1
GI50 (OVCAR-8 ovarian): > 100 µM
TGI (OVCAR-8 ovarian): > 100 µM
GI50 (SF-268 CNS): > 100 µM
TGI (SF-268 CNS): > 100 µM
GI50 (SNB-75 CNS): > 100 µM
TGI (SNB-75 CNS): > 100 µM
GI50 (SR leukemia): 60.2 µM
TGI (SR leukemia): > 100 µM
GI50 (NCI-H460 NSCLC): > 100 µM
TGI (NCI-H460 NSCLC): > 100 µM
GI50 (NCI-H226 lung): > 100 µM
TGI (NCI-H226 lung): > 100 µM
GI50 (SF-295 CNS): 85.2 µM
TGI (SF-295 CNS): > 100 µM
GI50 (PC-3 prostate): > 100 µM
TGI (PC-3 prostate): > 100 µM
GI50 (IGROV1 ovarian): > 100 µM
TGI (IGROV1 ovarian): > 100 µM
GI50 (SF-539 CNS): > 100 µM
TGI (SF-539 CNS): > 100 µM
GI50 (MDA-MB-231 breast): > 100 µM
TGI (MDA-MB-231 breast): > 100 µM
GI50 (CAKI-1 renal): > 56.9 µM
TGI (CAKI-1 renal): > 100 µM
GI50 (U251 glioblastoma): > 100 µM
TGI (U251 glioblastoma): > 100 µM
GI50 (TK-10 renal): > 100 µM
TGI (TK-10 renal): > 100 µM
GI50 (OVCAR-3 ovarian): > 100 µM
TGI (OVCAR-3 ovarian): > 100 µM
GI50 (UACC-257 melanoma): > 100 µM
TGI (UACC-257 melanoma): > 100 µM
GI50 (MCF7 breast): > 100 µM
TGI (MCF7 breast): > 100 µM
GI50 (DU-145 prostate): > 100 µM
TGI (DU-145 prostate): > 100 µM
GI50 (SN12C renal): > 100 µM
TGI (SN12C renal): > 100 µM
GI50 (T-47D breast): > 100 µM
TGI (T-47D breast): > 100 µM
GI50 (NCI-H23 lung): > 100 µM
TGI (NCI-H23 lung): > 100 µM
GI50 (HOP-92 NSCLC): > 100 µM
TGI (HOP-92 NSCLC): > 100 µM
GI50 (M14 melanoma): > 100 µM
TGI (M14 melanoma): > 100 µM
GI50 (UACC-62 melanoma): 58.1 µM
TGI (UACC-62 melanoma): > 100 µM
GI50 (MALME-3M melanoma): > 100 µM
TGI (MALME-3M melanoma): > 100 µM
GI50 (SNB-19 CNS): > 100 µM
TGI (SNB-19 CNS): > 100 µM
GI50 (NCI/ADR-RES ovarian): > 100 µM
TGI (NCI/ADR-RES ovarian): > 100 µM
GI50 (SK-OV-3 ovarian): > 100 µM
TGI (SK-OV-3 ovarian): > 100 µM
GI50 (CCRF-CEM leukemia): > 100 µM
TGI (CCRF-CEM leukemia): > 100 µM
GI50 (SW-620 colon): > 100 µM
TGI (SW-620 colon): > 100 µM
GI50 (BT-549 breast): > 100 µM
TGI (BT-549 breast): > 100 µM
GI50 (COLO 205 colon): > 100 µM
TGI (COLO 205 colon): > 100 µM
GI50 (RPMI-8226 leukemia): > 100 µM
TGI (RPMI-8226 leukemia): > 100 µM
GI50 (SK-MEL-2 melanoma): > 100 µM
TGI (SK-MEL-2 melanoma): > 100 µM
GI50 (KM12 colon): 24.5 µM
TGI (KM12 colon): > 100 µM
GI50 (OVCAR-4 ovarian): 98 µM
TGI (OVCAR-4 ovarian): > 100 µM
GI50 (LOX IMVI melanoma): > 100 µM
TGI (LOX IMVI melanoma): > 100 µM
GI50 (NCI-H322M lung): > 100 µM
TGI (NCI-H322M lung): > 100 µM
GI50 (A549 NSCLC): > 100 µM
TGI (A549 NSCLC): > 100 µM
GI50 (HS 578T breast): > 100 µM
TGI (HS 578T breast): > 100 µM
GI50 (ACHN renal): > 100 µM
TGI (ACHN renal): > 100 µM
GI50 (SK-MEL-28 melanoma): > 100 µM
TGI (SK-MEL-28 melanoma): > 100 µM
GI50 (HT29 colon): > 100 µM
TGI (HT29 colon): > 100 µM
GI50 (SK-MEL-5 melanoma): > 100 µM
TGI (SK-MEL-5 melanoma): > 100 µM
GI50 (OVCAR-5 ovarian): > 100 µM
TGI (OVCAR-5 ovarian): > 100 µM
GI50 (RXF 393 renal): > 100 µM
TGI (RXF 393 renal): > 100 µM
GI50 (NCI-H522 lung): > 100 µM
TGI (NCI-H522 lung): > 100 µM
